Reference: ChEMBL document CHEMBL1135337, “Synthesis and DNA binding properties of saturated distamycin analogues” (Bioorg Med Chem Lett, 2002)

Tested on: Nucleic Acid
Assay: Concentration required for 50% displacement of ethidium bromide from p[dA]p[dT] in a fluorescence intercalator displacement (FID) assay
Assay type: nucleic-acid assay

`CN1C[C@@H](NC(=O)[C@H]2C[C@H](NC(=O)[C@H]3C[C@H](NC=O)CN3C)CN2C)C[C@@H]1C(=O)NCCC(=N)N` and `N=C(N)CCNC(=O)[C@H]1C[C@H](NC(=O)[C@H]2C[C@H](NC(=O)[C@H]3C[C@H](NC=O)CO3)CO2)CO1` are within 1.5-fold of each other in C50: 6.7 µM for the first, 5.4 µM for the second.

Compared with `Cn1cc(NC(=O)c2cc(NC(=O)c3cc(NC=O)cn3C)cn2C)cc1C(=O)NCCC(=N)N`, `N=C(N)CCNC(=O)[C@H]1C[C@H](NC(=O)[C@H]2C[C@H](NC(=O)C3C[C@H](NC=O)CN3C(=O)OCc3ccccc3)CN2C(=O)OCc2ccccc2)CN1C(=O)OCc1ccccc1` (some centres undefined) is 10-fold higher in C50: 0.46 µM for the first, 4.7 µM for the second.

`N=C(N)CCNC(=O)[C@H]1C[C@H](NC(=O)[C@H]2C[C@H](NC(=O)[C@H]3C[C@H](NC=O)CN3)CN2)CN1` and `N=C(N)CCNC(=O)[C@@H]1C[C@@H](NC(=O)[C@@H]2C[C@@H](NC(=O)[C@@H]3C[C@@H](NC=O)CN3)CN2)CN1` are within 1.5-fold of each other in C50: 6.37 µM for the first, 8.55 µM for the second.

`N=C(N)CCNC(=O)[C@@H]1CC[C@@H](NC(=O)[C@@H]2CC[C@@H](NC(=O)[C@@H]3CC[C@@H](NC=O)C3)C2)C1` and `N=C(N)CCNC(=O)[C@@H]1C[C@@H](NC(=O)[C@@H]2C[C@@H](NC(=O)[C@@H]3C[C@@H](NC=O)CO3)CO2)CO1` are within 1.5-fold of each other in C50: 7.91 µM for the first, 5.5 µM for the second.

For `N=C(N)CCNC(=O)[C@@H]1C[C@@H](NC(=O)[C@@H]2C[C@@H](NC(=O)[C@@H]3C[C@@H](NC=O)CN3C(=O)OCc3ccccc3)CN2C(=O)OCc2ccccc2)CN1C(=O)OCc1ccccc1`, the C50 was 5.1 µM.
